Data: patent US7029879B1, “Iodine uptake restoration in thyroid cancer” (University of Kentucky Research Foundation, priority 1999, dated 2006)

How the values were obtained:
Format in all cases: cell-based, human
[1] = system: hNIS gene regions P (promoter), L (leader), C (coding); assay: Methylation-specific PCR of hNIS gene regions in treated cell lines
Protocol: (§1) Cell lines, for evaluation of iodide-uptake and hNIS expression, were grown in phenol-red-free RPMI 1640 with 5% fetal bovine serum (FBS), 100 nM sodium selenite and 0.1 nM bovine TSH (basal medium) (20). They were plated at a density of 3–5×10^4 cells/9.4 cm^2, in triplicate in basal medium, and grown for 2–3 days at 37° C. in 5% CO2. They were treated with dimethylsulfoxide (DMSO, 25 μM daily for 3 days), sodium butyrate (0.5 or 1.0 mM), phenylacetate (pH 7.0, 5 or 10 mM) or 5-azacytidine (0.5 or 1.0 μM, in 25 μM DMSO, daily for 3 days) until control cells were 80% confluent (3–4 days), then changed to fresh basal medium and grown for an additional 24 hrs.
This method utilizes PCR primer pairs to distinguish methylated from unmethylated DNA in bisulfite-modified target DNA, in which bisulfite converts unmethylated cytosines to uracil (23,24). Genomic DNAs, from normal and tumoral human thyroid tissues and cell lines, were isolated by standard techniques (21) and 1.0 μg aliquots were denatured by NaOH (10 min at 37° C.), then treated with 10 mM hydroquinone and 3.0 M sodium bisulfite (pH 5.0 under mineral oil for 16 hrs at 50° C.). Modified DNA was purified on a resin column (Qiagen) and further treated with 0.3 N NaOH for 5 min prior to ethanol precipitation. The PCR mixture contained 16.6 mM ammonium sulfate, 67 mM Tris-HCl (pH 8.8), 6.7 mM MgCl2, 10 mM β-mercaptoethanol, 1.25 mM dNTPs, 0.2 μL TaqStart antibody, 1 U AmpliTaq DNA polymerase, 10 pmoles each of sense and antisense methylation-specific primers, and […] of bisulphite-modified DNA target. Primers used for analysis of the hNIS promoter CpG island methylation were selected for cytosine-rich regions, containing CpG dinucleotides near the 3′ end of the primers, hNIS-MET-P (sense, 5′ to 3′, TTAGGTTTGGAGGCGGA GTCGC (SEQ ID NO. 7) and antisense, 5′ to 3′, ACCGACTATCTATCCCT CTCCCTAAACG) (SEQ ID NO. 8) for a 143 bp product from methylated DNA and hNIS-UNMET-P (sense, 5′ to 3′, […] GAGTTGT (SEQ ID NO. 9) and antisense, 5′ to 3′, […] CCTAAACA) (SEQ ID NO. 10) for a 151 bp product from unmethylated genomic DNA. Additional sets of primers were similarly designed to analyze further downstream elements. They were: hNIS-MET-L (sense, […] (SEQ ID NO. 11) and antisense, GACCT CCATAAAAACGAATACG) (SEQ ID NO. 12) for a 265 bp product, with hNIS-UNMET-L (sense, […] (SEQ ID NO. 13), and antisense, […]) (SEQ ID NO. 14), for a 275 bp product, hNIS-MET-C (sense, […] (SEQ ID NO. 15) and antisense, […]) (SEQ ID NO. 16) for a 242 bp product, and hNIS-UNMET-C (sense, […] (SEQ ID NO. 17), and antisense, […]) (SEQ ID NO. 18), for a 252 bp product. The amplification conditions were: Taq polymerase activation at 95° C. for 5 min, 40 cycles of: denaturation at 94° C. for 20 s, annealing at 60° C. for 30 s and polymerization at 72° C. for 30 s. MS-PCR products were resolved by agarose gel electrophoresis and visualized by ethidium bromide staining and UV transillumination.

TTF-1 mRNA = TTF-1 mRNA expression by RT-PCR in treated cell lines; details: for induction of TTF-1 mRNA expression: KAT-5 and KAT-10 (basal TTF-1 undetectable)
Protocol: as §1
(§2) Total RNA and genomic DNA from: normal human thyroid, thyroid tumors, and cell lines (treated with agents described above), were isolated by the acid-guanidinium-phenol-chloroform method (21). All surgical samples were snap-frozen and stored at −80° C. until processed by homogenization in Trizol reagent (Life Technologies, Gaithersburg, Md.) while still frozen. Complementary DNA (cDNA) was synthesized from 1.0 μg of total RNA using MMLV reverse transcriptase (RT) with random-hexamer primers (Clontech, Palo Alto, Calif.). Each 50 μL polymerase chain reaction (PCR) vessel contained: 60 mM Tris HCl, pH 9.0, 15 mM ammonium sulfate, 3.5 mM MgCl2 (1.5 mM for hTTF-1), 250 μM dNTPs (Boehringer-Mannheim, Indianapolis, Ind.), 0.2 μM each primer pair, 1 U AmpliTaq DNA polymerase (Perkin-Elmer, Norwalk, Conn.), 0.2 μg TaqStart Antibody (Clontech) and 3% cDNA. β-actin amplification (primers, Stratagene, La Jolla, Calif.) confirmed cDNA integrity, purity, and template equivalence for semiquantification. PCR primers (upstream 5′ to 3′/downstream 5′ to 3′, in all cases) used for amplification were, for hNIS (5), CTGCCCCAGACCAGTACAT GCC (SEQ ID NO. 1)/[…] (SEQ ID NO. 2) (to amplify a coding region spanning four introns (4) yielding a 303 bp product from cDNA) and for Pax-8, […] (SEQ ID NO. 3)/[…] (SEQ ID NO. 4)((22) to amplify a 329 bp product). Amplification conditions for hNIS and Pax-8 were: denaturation (95° C.×5 min); 40 cycles of 20 sec at 95° C. and 60 sec at 68° C.; followed by extension at 72° C. for 3 min. The hTTF-1 product was amplified with intron spanning primers, […] (SEQ ID NO. 5)/[…] (SEQ ID NO. 6), which amplify a 263 bp fragment. The conditions were: 95° C. for 5 min; 45 cycles of 95° C. for 20 sec, 60° C. for 60 sec, and 72° C. for 30 sec; followed by extension at 72° C. for 3 min. The RT-PCR products were resolved on 2% agarose gels and visualized by ethidium bromide staining.

Pax-8 mRNA = Pax-8 mRNA expression by RT-PCR in treated cell lines
Protocol: as §1, §2

[2] = KAT-5, high: AzaC 1.0 μM, PhAc 10 mM
[3] = NPA'87, high: AzaC 1.0 μM, NaB 1.0 mM

Compound: Nc1ncn([C@@H]2O[C@H](CO)[C@@H](O)[C@H]2O)c(=O)n1 [AzaC, 5-azacytidine]
- methylation at the L and C regions after treatment ([1]; KAK-1, KAT-5, KAT-10 and NPA'87 (all four cell lines)): decreased methylation
- Methylation Status by Region C ([1]; KAK-1, high: AzaC 1.0 μM): −
- Methylation Status by Region L ([1]; KAK-1, high: AzaC 1.0 μM): −
- Methylation Status by Region P ([1]; KAK-1, high: AzaC 1.0 μM): −
- Methylation Status by Region C ([1]; KAK-1, low: AzaC 0.5 μM): −
- Methylation Status by Region L ([1]; KAK-1, low: AzaC 0.5 μM): −
- Methylation Status by Region P ([1]; KAK-1, low: AzaC 0.5 μM): −
- Methylation Status by Region C [1, 2]: −
- Methylation Status by Region L [1, 2]: −
- Methylation Status by Region P [1, 2]: −
- susceptibility to demethylation effects in the C region ([1]; KAT-5 and KAT-10 cells, C region compared with L region): less than that of the L region
- Methylation Status by Region C ([1]; KAT-10, low: AzaC 0.5 μM): −
- Methylation Status by Region L ([1]; KAT-10, low: AzaC 0.5 μM): −
- Methylation Status by Region P ([1]; KAT-10, low: AzaC 0.5 μM): −
- effect on methylation status of the P region ([1]; MRO87, WRO82 and KAT-7): did not affect the baseline demethylated status
- demethylation of region C in response to treatment ([1]; MRO87, WRO82 and KAT-7, except minimal unmethylated product for WRO82): did not become demethylated
- Methylation Status by Region C [1, 3]: −
- Methylation Status by Region L [1, 3]: −
- Methylation Status by Region P [1, 3]: −
- TTF-1 mRNA (TTF-1 mRNA; KAK-1, high: AzaC 1.0 μM): +
- TTF-1 mRNA (TTF-1 mRNA; KAK-1, low: AzaC 0.5 μM): +
- TTF-1 mRNA (TTF-1 mRNA; [2]): +
- induction of TTF-1 mRNA expression (TTF-1 mRNA): induced
- TTF-1 mRNA (TTF-1 mRNA; KAT-10, low: AzaC 0.5 μM): +
- TTF-1 mRNA (TTF-1 mRNA; [3]): +
- Pax-8 mRNA (Pax-8 mRNA; KAK-1, high: AzaC 1.0 μM): +
- Pax-8 mRNA (Pax-8 mRNA; KAK-1, low: AzaC 0.5 μM): +
- Pax-8 mRNA (Pax-8 mRNA; [2]): +
- Pax-8 mRNA (Pax-8 mRNA; KAT-10, low: AzaC 0.5 μM): +
- Pax-8 mRNA (Pax-8 mRNA; [3]): +

Compound: CCCC(=O)[O-].[Na+] [NaB, sodium butyrate]
- Methylation Status by Region C ([1]; KAT-10, high: NaB 1.0 mM): +
- Methylation Status by Region L ([1]; KAT-10, high: NaB 1.0 mM): +
- Methylation Status by Region P ([1]; KAT-10, high: NaB 1.0 mM): −
- Methylation Status by Region C [1, 3]: +
- Methylation Status by Region L [1, 3]: +
- Methylation Status by Region P [1, 3]: −
- effect on baseline methylation patterns in all three regions ([1]; NPA'87 and KAT-10): failed to demonstrate effects on altering baseline methylation patterns
- induction of TTF-1 mRNA expression (TTF-1 mRNA): did not have such an effect in either of the cell lines
- TTF-1 mRNA (TTF-1 mRNA; KAT-10, high: NaB 1.0 mM): −
- TTF-1 mRNA (TTF-1 mRNA; [3]): +
- Pax-8 mRNA (Pax-8 mRNA; KAT-10, high: NaB 1.0 mM): +
- Pax-8 mRNA (Pax-8 mRNA; [3]): +
